# Laboratory results: PubChem BioAssay AID306 (DTP/NCI, 2004)
# “And” between values parts separate entries of the source, which are not always exact repeats. Equal entries are not always repeated. Inconclusive results and toxic doses are left out.
# System: BDF1 mice, L1210 Methyl-GAG-resistant leukemia, survival T/C
# Assay: NCI In Vivo Anticancer Drug Screen. Data for tumor model L1210 Leukemia resistant to Methyl-GAG; NSC 32946 (subcutaneous) in B6D2F1 (BDF1) mice
# Conditions: endpoint: mean survival time, higher = longer survival
# Method: The antitumor activity of compounds was measured in mice bearing transplantable tumors. Survival or tumor size were measured and the results are expressed as the measurement made in the treated group (T) divided by the measurement made in the vehicle treated control group (C). The tumor model used in this assay is L1210 Leukemia resistant to Methyl-GAG; NSC 32946 (subcutaneous) in B6D2F1 (BDF1) mice
# [1] = dose: 3.2 mg/kg/injection, schedule: Q01DX Z (ip), vehicle: saline
# [2] = dose: 6.3 mg/kg/injection, schedule: Q01DX Z (ip), vehicle: saline
# [3] = dose: 12.5 mg/kg/injection, schedule: Q01DX Z (ip), vehicle: saline
# [4] = dose: 25.0 mg/kg/injection, schedule: Q01DX Z (ip), vehicle: saline
# [5] = dose: 0.12 mg/kg/injection, schedule: Q01DX Z (ip), vehicle: carboxymethylcellulose (CMC)
# [6] = dose: 0.5 mg/kg/injection, schedule: Q01DX Z (ip), vehicle: carboxymethylcellulose (CMC)
# [7] = dose: 1.0 mg/kg/injection, schedule: Q01DX Z (ip), vehicle: carboxymethylcellulose (CMC)
# [8] = dose: 1.25 mg/kg/injection, schedule: Q01DX Z (ip), vehicle: carboxymethylcellulose (CMC)
# [9] = dose: 2.5 mg/kg/injection, schedule: Q01DX Z (ip), vehicle: carboxymethylcellulose (CMC)
# [10] = dose: 5.0 mg/kg/injection, schedule: Q01DX Z (ip), vehicle: carboxymethylcellulose (CMC)
# [11] = dose: 3.1 mg/kg/injection, schedule: Q01DX Z (ip), vehicle: carboxymethylcellulose (CMC)
# [12] = dose: 12.5 mg/kg/injection, schedule: Q01DX Z (ip), vehicle: carboxymethylcellulose (CMC)
# [13] = dose: 25.0 mg/kg/injection, schedule: Q01DX Z (ip), vehicle: carboxymethylcellulose (CMC)
# [14] = dose: 125.0 mg/kg/injection, schedule: Q01DX Z (ip), vehicle: saline
# [15] = dose: 250.0 mg/kg/injection, schedule: Q01DX Z (ip), vehicle: saline
# [16] = dose: 2000.0 mg/kg/injection, schedule: Q01DX Z (ip), vehicle: saline
# [17] = dose: 10.0 mg/kg/injection, schedule: Q01DX Z (ip), vehicle: carboxymethylcellulose (CMC)
# [18] = dose: 20.0 mg/kg/injection, schedule: Q01DX Z (ip), vehicle: carboxymethylcellulose (CMC)
# [19] = dose: 2.0 mg/kg/injection, schedule: Q01DX Z (ip), vehicle: carboxymethylcellulose (CMC)
compound,measurement,setting,value
CCCNc1ncnc2[nH]ncc12,T/C,"dose: 5.0 mg/kg/injection, schedule: Q01DX Z (ip), vehicle: water",96 % of control
same,T/C,"dose: 10.0 mg/kg/injection, schedule: Q01DX Z (ip), vehicle: water",93 % of control
same,T/C,"dose: 20.0 mg/kg/injection, schedule: Q01DX Z (ip), vehicle: water",120 % of control
same,T/C,"dose: 40.0 mg/kg/injection, schedule: Q01DX Z (ip), vehicle: water",88 % of control and 112 % of control
Clc1ncnc2nc[nH]c12,T/C,"dose: 31.25 mg/kg/injection, schedule: Q01DX Z (ip), vehicle: carboxymethylcellulose (CMC)",100 % of control
same,T/C,"dose: 62.5 mg/kg/injection, schedule: Q01DX Z (ip), vehicle: carboxymethylcellulose (CMC)",90 % of control
same,T/C,"dose: 125.0 mg/kg/injection, schedule: Q01DX Z (ip), vehicle: carboxymethylcellulose (CMC)",121 % of control
O=NN(CCCl)C(=O)NCCCl,T/C,"dose: 1.0 mg/kg/injection, schedule: Q01DX Z (ip), vehicle: saline",122 % of control
same,T/C,"dose: 2.0 mg/kg/injection, schedule: Q01DX Z (ip), vehicle: saline",155 % of control
same,T/C,"dose: 4.0 mg/kg/injection, schedule: Q01DX Z (ip), vehicle: saline",202 % of control
same,T/C,"dose: 8.0 mg/kg/injection, schedule: Q01DX Z (ip), vehicle: saline",172 % of control
same,T/C,"dose: 16.0 mg/kg/injection, schedule: Q01DX Z (ip), vehicle: saline",92 % of control
same,T/C,"dose: 32.0 mg/kg/injection, schedule: Q01DX Z (ip), vehicle: saline",92 % of control
CN(N=O)C(N)=O,T/C,[1],97 % of control
same,T/C,[2],113 % of control
same,T/C,[3],115 % of control
same,T/C,[4],178 % of control
C[C@]12CCC(=O)C=C1CC[C@@H]1[C@@H]2CC[C@@]2(C)[C@H]1CC[C@]2(C)O,T/C,"dose: 16.0 mg/kg/injection, schedule: Q01DX Z (sc), vehicle: steriod suspending solution",97 % of control
same,T/C,"dose: 32.0 mg/kg/injection, schedule: Q01DX Z (sc), vehicle: steriod suspending solution",105 % of control
same,T/C,"dose: 62.5 mg/kg/injection, schedule: Q01DX Z (sc), vehicle: steriod suspending solution",89 % of control
same,T/C,"dose: 63.0 mg/kg/injection, schedule: Q01DX Z (sc), vehicle: steriod suspending solution",97 % of control
same,T/C,"dose: 125.0 mg/kg/injection, schedule: Q01DX Z (sc), vehicle: steriod suspending solution",95 % of control and 101 % of control
O[C@H](CN1CC1)[C@@H](O)CN1CC1,T/C,"dose: 0.06 mg/kg/injection, schedule: Q01DX Z (ip), vehicle: carboxymethylcellulose (CMC)",97 % of control
same,T/C,[5],110 % of control
same,T/C,[6],170 % of control and 178 % of control
same,T/C,[7],100 % of control
same,T/C,"dose: 63.0 micrograms/kg/injection, schedule: Q01DX Z (ip), vehicle: carboxymethylcellulose (CMC)",101 % of control
same,T/C,"dose: 125.0 micrograms/kg/injection, schedule: Q01DX Z (ip), vehicle: carboxymethylcellulose (CMC)",109 % of control
CCN(CC)c1ccc2cc3ccc(=[N+](CC)CC)cc-3oc2c1,T/C,"dose: 0.08 mg/kg/injection, schedule: Q01DX Z (ip), vehicle: carboxymethylcellulose (CMC)",117 % of control
same,T/C,"dose: 0.16 mg/kg/injection, schedule: Q01DX Z (ip), vehicle: carboxymethylcellulose (CMC)",95 % of control
same,T/C,"dose: 0.31 mg/kg/injection, schedule: Q01DX Z (ip), vehicle: carboxymethylcellulose (CMC)",91 % of control
same,T/C,"dose: 0.32 mg/kg/injection, schedule: Q01DX Z (ip), vehicle: carboxymethylcellulose (CMC)",103 % of control
same,T/C,"dose: 0.63 mg/kg/injection, schedule: Q01DX Z (ip), vehicle: carboxymethylcellulose (CMC)",91 % of control
same,T/C,[8],87 % of control
same,T/C,[9],91 % of control
same,T/C,[10],95 % of control
C[n+]1c2ccccc2nc2c(N)cc(N)cc21,T/C,"dose: 1.6 mg/kg/injection, schedule: Q01DX Z (ip), vehicle: carboxymethylcellulose (CMC)",101 % of control
same,T/C,[11],102 % of control
same,T/C,"dose: 6.3 mg/kg/injection, schedule: Q01DX Z (ip), vehicle: carboxymethylcellulose (CMC)",98 % of control and 104 % of control
same,T/C,[12],104 % of control
same,T/C,[13],104 % of control
C[C@H](N)C(=O)N[C@@H]1[C@H]2C(=C(O)C[C@@H](O)[C@@H]2O)C(=O)O[C@@H]1C,T/C,"dose: 31.25 mg/kg/injection, schedule: Q01DX Z (ip), vehicle: saline",96 % of control
same,T/C,[14],102 % of control
same,T/C,[15],116 % of control
same,T/C,[16],96 % of control
NC(Cc1ccc(N(CCCl)CCCl)cc1)C(=O)O (stereo not given),T/C,[8],104 % of control
same,T/C,[9],106 % of control
same,T/C,[1],94 % of control
same,T/C,[10],106 % of control
same,T/C,[2],118 % of control
same,T/C,[17],120 % of control
same,T/C,[3],113 % of control
same,T/C,[18],98 % of control
same,T/C,[4],94 % of control
Nc1nc(=S)c2[nH]cnc2[nH]1,T/C,[5],98 % of control
same,T/C,"dose: 0.25 mg/kg/injection, schedule: Q01DX Z (ip), vehicle: carboxymethylcellulose (CMC)",93 % of control
same,T/C,[6],96 % of control
same,T/C,[19],164 % of control and 168 % of control
same,T/C,"dose: 4.0 mg/kg/injection, schedule: Q01DX Z (ip), vehicle: carboxymethylcellulose (CMC)",118 % of control
CC1CCOS(=O)O1 (stereo not given),T/C,[9],95 % of control
same,T/C,[10],101 % of control
same,T/C,[17],97 % of control
same,T/C,[18],97 % of control
same,T/C,"dose: 40.0 mg/kg/injection, schedule: Q01DX Z (ip), vehicle: carboxymethylcellulose (CMC)",95 % of control
same,T/C,"dose: 80.0 mg/kg/injection, schedule: Q01DX Z (ip), vehicle: carboxymethylcellulose (CMC)",92 % of control
Oc1cc(CN(CCCl)CCCl)c(O)cc1CN(CCCl)CCCl,T/C,"dose: 1.88 mg/kg/injection, schedule: Q01DX Z (sc), vehicle: steriod suspending solution",103 % of control
same,T/C,"dose: 3.75 mg/kg/injection, schedule: Q01DX Z (sc), vehicle: steriod suspending solution",111 % of control
same,T/C,"dose: 7.5 mg/kg/injection, schedule: Q01DX Z (sc), vehicle: steriod suspending solution",115 % of control
C1CN1c1nc(N2CC2)nc(N2CC2)n1,T/C,"dose: 62.5 micrograms/kg/injection, schedule: Q01DX Z (ip), vehicle: saline",96 % of control
same,T/C,"dose: 250.0 micrograms/kg/injection, schedule: Q01DX Z (ip), vehicle: saline",97 % of control
same,T/C,"dose: 1000.0 micrograms/kg/injection, schedule: Q01DX Z (ip), vehicle: saline",110 % of control
CCCCn1cnc2c(=S)nc[nH]c21,T/C,[11],91 % of control
same,T/C,"dose: 6.25 mg/kg/injection, schedule: Q01DX Z (ip), vehicle: carboxymethylcellulose (CMC)",113 % of control
same,T/C,[12],97 % of control
same,T/C,[13],103 % of control
CC(=O)Nc1ccc2nc3ccc(NC(C)=O)cc3[n+](-c3ccccc3)c2c1,T/C,[12],97 % of control
same,T/C,[13],97 % of control
same,T/C,"dose: 50.0 mg/kg/injection, schedule: Q01DX Z (ip), vehicle: carboxymethylcellulose (CMC)",113 % of control
same,T/C,"dose: 100.0 mg/kg/injection, schedule: Q01DX Z (ip), vehicle: carboxymethylcellulose (CMC)",98 % of control
same,T/C,"dose: 200.0 mg/kg/injection, schedule: Q01DX Z (ip), vehicle: carboxymethylcellulose (CMC)",88 % of control
same,T/C,"dose: 400.0 mg/kg/injection, schedule: Q01DX Z (ip), vehicle: carboxymethylcellulose (CMC)",93 % of control
CC(=O)N(C)C,T/C,[14],100 % of control
same,T/C,[15],94 % of control
same,T/C,"dose: 500.0 mg/kg/injection, schedule: Q01DX Z (ip), vehicle: saline",102 % of control
same,T/C,"dose: 1000.0 mg/kg/injection, schedule: Q01DX Z (ip), vehicle: saline",109 % of control
same,T/C,[16],105 % of control
same,T/C,"dose: 4000.0 mg/kg/injection, schedule: Q01DX Z (ip), vehicle: saline",154 % of control
NC(=O)N(CCCl)N=O,T/C,[6],95 % of control
same,T/C,[7],96 % of control and 101 % of control
same,T/C,[19],100 % of control and 101 % of control
